Key:
[1] = biological target: T1, Serine/threonine-protein kinase pim-1 (Homo sapiens, UniProt P11309); assay: Inhibition of human PIM1 by discoverX kinome scan assay
HepG2 = assay: Antiproliferative activity against human HepG2 cells assessed as inhibition of cell growth incubated for 72 hrs by MTT assay; type: functional, cell-based; details: HepG2, 72 h
PC-3 = assay: Anticancer activity against human PC-3 cells assessed as inhibition of cell growth incubated for 24 hrs by MTT assay; type: functional, cell-based; details: PC-3, 24 h
MCF7 [2] = assay: Antiproliferative activity against human MCF7 cells assessed as reduction in cell growth incubated for 48 hrs by MTT assay; type: functional, cell-based; details: MCF7, 48 h
[3] = biological target: T2, Polyunsaturated fatty acid 5-lipoxygenase (Homo sapiens, UniProt P09917); assay: Inhibition of 5-LOX in human PMNL cells; type: cell-based
T2 sequence (P09917 whole entry): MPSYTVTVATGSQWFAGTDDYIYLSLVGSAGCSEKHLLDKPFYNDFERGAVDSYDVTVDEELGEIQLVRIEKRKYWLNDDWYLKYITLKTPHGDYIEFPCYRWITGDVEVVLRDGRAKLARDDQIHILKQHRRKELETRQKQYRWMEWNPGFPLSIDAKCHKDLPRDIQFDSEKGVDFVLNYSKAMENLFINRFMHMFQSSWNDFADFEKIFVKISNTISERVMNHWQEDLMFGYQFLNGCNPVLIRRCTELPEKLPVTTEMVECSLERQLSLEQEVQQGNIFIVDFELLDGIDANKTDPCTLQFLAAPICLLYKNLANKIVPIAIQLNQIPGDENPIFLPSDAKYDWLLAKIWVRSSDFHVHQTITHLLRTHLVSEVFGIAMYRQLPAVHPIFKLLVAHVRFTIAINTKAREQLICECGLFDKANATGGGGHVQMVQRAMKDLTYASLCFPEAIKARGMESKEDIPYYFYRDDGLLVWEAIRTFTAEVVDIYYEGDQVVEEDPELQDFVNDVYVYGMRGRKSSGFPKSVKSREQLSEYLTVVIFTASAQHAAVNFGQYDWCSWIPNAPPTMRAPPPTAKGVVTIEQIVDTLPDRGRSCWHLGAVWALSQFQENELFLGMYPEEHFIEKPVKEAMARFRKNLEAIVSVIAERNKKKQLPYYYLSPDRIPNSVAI

[4] = biological target: Prostaglandin G/H synthase 1 (Homo sapiens, UniProt P23219); assay: Inhibition of COX1 (unknown origin) fluorescence based analysis
[5] = biological target: T1, Serine/threonine-protein kinase pim-1; assay: Inhibition of human recombinant PIM1
[6] = biological target: T3, Prostaglandin G/H synthase 2 (Homo sapiens, UniProt P35354); assay: Inhibition of COX2 (unknown origin) fluorescence based analysis
T3 sequence (P35354 whole entry): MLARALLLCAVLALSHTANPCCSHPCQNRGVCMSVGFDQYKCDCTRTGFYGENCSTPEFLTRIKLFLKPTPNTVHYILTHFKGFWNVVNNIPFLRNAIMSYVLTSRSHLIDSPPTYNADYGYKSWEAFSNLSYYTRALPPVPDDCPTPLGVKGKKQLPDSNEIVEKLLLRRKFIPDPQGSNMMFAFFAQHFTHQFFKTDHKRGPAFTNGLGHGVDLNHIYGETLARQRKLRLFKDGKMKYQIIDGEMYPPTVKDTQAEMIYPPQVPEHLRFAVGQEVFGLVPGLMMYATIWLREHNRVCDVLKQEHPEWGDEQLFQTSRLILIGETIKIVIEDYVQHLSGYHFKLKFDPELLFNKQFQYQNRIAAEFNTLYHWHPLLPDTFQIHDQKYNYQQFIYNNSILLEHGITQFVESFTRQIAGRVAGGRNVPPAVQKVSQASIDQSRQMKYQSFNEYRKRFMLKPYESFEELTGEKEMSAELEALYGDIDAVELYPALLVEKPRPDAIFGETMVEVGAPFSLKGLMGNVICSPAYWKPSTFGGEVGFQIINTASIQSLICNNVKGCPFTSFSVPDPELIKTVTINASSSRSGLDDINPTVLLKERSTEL

[7] = biological target: T4, Serine/threonine-protein kinase pim-2 (Homo sapiens, UniProt Q9P1W9); assay: Inhibition of N-terminal GST-tagged full length human PIM2 (1 to 311 residues) expressed in baculovirus expression system using S6K2 peptide as substrate at 1 uM in presence of ATP by Mobility shift assay
[8] = biological target: T4, Serine/threonine-protein kinase pim-2
[9] = biological target: T1, Serine/threonine-protein kinase pim-1
[10] = biological target: T5, Serine/threonine-protein kinase pim-3 (Homo sapiens, UniProt Q86V86)
[11] = biological target: T1, Serine/threonine-protein kinase pim-1; assay: Inhibition of human PIM1 using KKRNRTLTK as substrate in presence of [gamma-33P]-ATP by hotspot kinase assay
[12] = biological target: T4, Serine/threonine-protein kinase pim-2; assay: Binding affinity to PIM2 (unknown origin) assessed as inhibition constant
[13] = biological target: T1, Serine/threonine-protein kinase pim-1; assay: Binding affinity to PIM1 (unknown origin) assessed as inhibition constant
[14] = biological target: T1, Serine/threonine-protein kinase pim-1; assay: Inhibition of human full length-His6 tagged PIM1 (1 to 312 residues) expressed in Escherichia coli BL21 (DE3) using RSRHSSYPAGT as peptide substrate incubated for 10 mins in presence of [gamma-32P]ATP by radiometric scintillation assay
[15] = biological target: T4, Serine/threonine-protein kinase pim-2; assay: Inhibition of human full length-His6 tagged PIM2 (1 to 311 residues) expressed in Escherichia coli BL21 (DE3) assessed as inhibition constant using RSRHSSYPAGT as peptide substrate incubated for 10 mins in presence of [gamma-32P]ATP by radiometric scintillation assay
[16] = biological target: T5, Serine/threonine-protein kinase pim-3; assay: Inhibition of N-terminal GST-tagged full length human PIM3 (1 to 326 residues) expressed in baculovirus expression system using S6K2 peptide as substrate at 1 uM in presence of ATP by Mobility shift assay
[17] = biological target: T1, Serine/threonine-protein kinase pim-1; assay: Inhibition of PIM1 (unknown origin) by FRET based Z-LYTE kinase assay
[18] = biological target: T4, Serine/threonine-protein kinase pim-2; assay: Inhibition of PIM2 (unknown origin) by FRET based Z-LYTE kinase assay
[19] = biological target: T5, Serine/threonine-protein kinase pim-3; assay: Inhibition of PIM3 (unknown origin) by FRET based Z-LYTE kinase assay
MCF7 [20] = assay: Cytotoxicity against human MCF7 cells assessed as reduction in cell growth incubated for 72 hrs by MTT assay; type: functional, cell-based; details: MCF7, 72 h
HCT-116 = assay: Cytotoxicity against human HCT-116 cells assessed as reduction in cell viability incubated for 72 hrs by MTT assay; type: functional, cell-based; details: HCT-116, 72 h
MCF7 [21] = assay: Cytotoxicity against human MCF7 cells assessed as reduction in cell viability by MTT assay; type: functional, cell-based

## N#Cc1c(-c2ccccc2O)cc(-c2ccc(N3C(=O)c4ccccc4C3=O)cc2)nc1N
[1]
  IC50: 9.76 µM
HepG2
  IC50: 14.6 µM
PC-3
  IC50: 27.6 µM
MCF7 [2]
  IC50: 13.4 µM

## Cc1ccc(C(C)C)c(O)c1/C=N/N=C1NC(=O)C(CC(=O)O)S1 (stereo unspecified)
[3]
  IC50: 3.54 µM
[4]
  IC50: 9.4 µM
[5]
  IC50: 2.96 µM
[6]
  IC50: 0.091 µM
[7]
  IC50: 1.38 µM

## CC(C)(O)[C@H]1CC[C@H](Nc2ccc3ncc(-c4cccc(C(F)(F)F)c4)n3n2)CC1 [NUVISERTIB]
[8]
  IC50: 0.239 µM
[9]
  IC50: 0.005 µM
[10]
  IC50: 0.042 µM

## N#Cc1c(-c2ccccc2)cc(-c2ccccc2)nc1OCCCC(=O)NO
[11]
  IC50: 0.344 µM

## CC(C)(C)Nc1nnc(-c2ccc3[nH]cc(-c4nccc(C5CC5)n4)c3c2)o1
[12]
  Ki: 0.00028 µM
[13]
  Ki: 0.00055 µM

## Cc1cccc(-c2c(-c3cccc(OC(F)(F)F)c3)cc3n2[C@@H](CCN)CNC3=O)c1
[14]
  IC50: 0.007 µM
[15]
  IC50: 25 µM

## COc1ccc(N2C(=O)C(CC(=O)O)S/C2=N/N=C/c2c(C)ccc(C(C)C)c2O)cc1 (stereo unspecified)
[3]
  IC50: 2.81 µM
[4]
  IC50: 14 µM
[5]
  IC50: 7.21 µM
[6]
  IC50: 0.037 µM
[7]
  IC50: 0.976 µM

## N#Cc1c(-c2ccco2)cc(-c2ccc(N3C(=O)c4ccccc4C3=O)cc2)nc1N
[1]
  IC50: 0.63 µM
HepG2
  IC50: 31.1 µM
PC-3
  IC50: 33.5 µM
MCF7 [2]
  IC50: 19.7 µM

## CN1CCN(C[C@@H](NC(=O)CC2CNC(=O)c3cc(-c4cccc(Cl)c4)cn32)C2CCCCC2)CC1 (stereo partly specified)
[14]
  IC50: 0.0015 µM

## CC(C)n1c(C2CCNCC2)nc2c([N+](=O)[O-])c(Br)c(Br)cc21 [DAPOLSERTIB]
[8]
  IC50: 0.002 µM
[9]
  IC50: 0.002 µM
[10]
  IC50: 0.003 µM

## C[C@@H]1CCCN(c2c(/C=C3\SC(=O)NC3=O)cccc2-c2ccccc2)C1
[8]
  IC50: 0.005 µM
[9]
  IC50: 0.003 µM
[10]
  IC50: 0.003 µM

## CCc1ccc(NC(=O)c2sc3nc(-c4ccc(OC)c(OC)c4)cc(-c4ccc(O)c(O)c4)c3c2N)cc1
[11]
  IC50: 9.39 µM

## COc1ccc(/C=C/C(=O)/C=C2/C(=O)Nc3cc(Br)ccc32)cc1
[16]
  IC50: 0.3 µM
[14]
  IC50: 0.37 µM
[15]
  IC50: 0.41 µM

## CN1CCN(c2ccc(-n3cnc4ccc(/C=C5\SC(=S)NC5=O)cc43)cc2)CC1
[17]
  IC50: 16 µM
[18]
  IC50: 16 µM
[19]
  IC50: 6.4 µM

## Cc1nc2sc3c(c2c(C)c1Br)NC(c1ccccc1Cl)NC3=O (stereo unspecified)
MCF7 [20]
  IC50: 23.8 µM
HCT-116
  IC50: 18.6 µM

## Cc1ccc(-c2cncc(NCCN(C)C)n2)cc1CC1SC(=O)NC1=O (stereo unspecified)
[18]
  IC50: 0.006 µM
[19]
  IC50: 0.006 µM

## Cc1nc2sc(C(=O)Nc3ccc(F)c(Cl)c3)c(N)c2c(C)c1Br
[1]
  IC50: 35.7 µM
MCF7 [21]
  IC50: 75.9 µM

From ChEMBL document CHEMBL5532678, “Comprehensive Insights that Targeting PIM for Cancer Therapy: Prospects and Obstacles” (J Med Chem, 2024)
